For one molecule, IC50 and Activity results are on record in ChEMBL document CHEMBL5674866 (J Biol Chem, 2015).

The target in assay [1] is Serine/threonine-protein kinase MRCK beta (Homo sapiens, UniProt Q9Y5S2). The experiment in a line: Inhibition of human MRCKB by discoverX kinome scan assay.
Assay [2] addresses T1, Serine/threonine-protein kinase Nek2 (Homo sapiens, UniProt P51955).
T1 sequence (P51955 whole entry): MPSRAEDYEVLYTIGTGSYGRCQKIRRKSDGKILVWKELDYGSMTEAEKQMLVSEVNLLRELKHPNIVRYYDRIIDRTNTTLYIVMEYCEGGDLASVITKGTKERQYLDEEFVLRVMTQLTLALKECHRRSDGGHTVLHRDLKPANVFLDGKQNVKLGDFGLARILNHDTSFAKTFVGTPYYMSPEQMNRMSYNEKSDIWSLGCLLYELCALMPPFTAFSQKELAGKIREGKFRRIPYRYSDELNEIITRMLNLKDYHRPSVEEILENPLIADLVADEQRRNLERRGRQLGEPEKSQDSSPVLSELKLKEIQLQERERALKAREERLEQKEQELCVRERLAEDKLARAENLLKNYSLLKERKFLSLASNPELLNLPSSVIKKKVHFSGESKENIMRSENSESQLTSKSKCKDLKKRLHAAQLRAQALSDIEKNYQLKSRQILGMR
As to the kind of experiment: Inhibition of human NEK2 by discoverX kinome scan assay.

The nature of assay [3]: Inhibition of human ABL1 pT315I mutant by discoverX kinome scan assay.
The next assay addresses Myosin-IIIa (Homo sapiens, UniProt Q8NEV4). The experiment in a line: Inhibition of human MYO3A by discoverX kinome scan assay.
The next assay concerns KYSE-150 cell line. As to the kind of experiment: Effect on cellular post-translational modifications on histone […] (GKGGKGLGKGGAKR) - K5 acetylated , K8 unmethylated , K12 acetylated, K16 unmethylated in human KYSE-150 cells assessed as relative abundance at 5 by mass spectrometric analysis (reference value: 3+/-1.7). It is filed as functional. The conditions noted are these: dose 5 µM.

The target in assay [4] is Protein kinase C eta type (Homo sapiens, UniProt P24723). As to the kind of experiment: Inhibition of human PRKCH by discoverX kinome scan assay.
Assay [5] can be described thus: Inhibition of human ABL1 pM351T mutant by discoverX kinome scan assay.
The nature of assay [6]: Inhibition of human ABL1 pH396P mutant by discoverX kinome scan assay.
The target of assay [7] is T2, Mitogen-activated protein kinase 13 (Homo sapiens, UniProt O15264).
T2 sequence (O15264 whole entry): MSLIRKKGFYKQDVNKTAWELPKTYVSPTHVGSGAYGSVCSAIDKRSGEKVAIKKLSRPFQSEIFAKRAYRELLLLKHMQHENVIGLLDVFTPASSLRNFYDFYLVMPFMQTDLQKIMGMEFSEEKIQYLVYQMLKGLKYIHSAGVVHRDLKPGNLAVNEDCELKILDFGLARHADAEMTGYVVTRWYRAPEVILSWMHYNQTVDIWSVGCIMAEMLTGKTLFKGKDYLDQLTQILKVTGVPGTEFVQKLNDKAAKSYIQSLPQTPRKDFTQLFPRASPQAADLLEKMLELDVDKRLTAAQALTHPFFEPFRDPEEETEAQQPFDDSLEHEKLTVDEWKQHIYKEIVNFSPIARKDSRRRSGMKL
As to the kind of experiment: Inhibition of human p38-delta by discoverX kinome scan assay.

In assay [8] the target is Phosphatidylinositol 4,5-bisphosphate 3-kinase catalytic subunit beta isoform (Homo sapiens, UniProt P42338). As to the kind of experiment: Inhibition of human PIK3CB by discoverX kinome scan assay.
Chain of Phosphatidylinositol 4,5-bisphosphate 3-kinase catalytic subunit beta isoform (P42338 whole entry, canonical isoform): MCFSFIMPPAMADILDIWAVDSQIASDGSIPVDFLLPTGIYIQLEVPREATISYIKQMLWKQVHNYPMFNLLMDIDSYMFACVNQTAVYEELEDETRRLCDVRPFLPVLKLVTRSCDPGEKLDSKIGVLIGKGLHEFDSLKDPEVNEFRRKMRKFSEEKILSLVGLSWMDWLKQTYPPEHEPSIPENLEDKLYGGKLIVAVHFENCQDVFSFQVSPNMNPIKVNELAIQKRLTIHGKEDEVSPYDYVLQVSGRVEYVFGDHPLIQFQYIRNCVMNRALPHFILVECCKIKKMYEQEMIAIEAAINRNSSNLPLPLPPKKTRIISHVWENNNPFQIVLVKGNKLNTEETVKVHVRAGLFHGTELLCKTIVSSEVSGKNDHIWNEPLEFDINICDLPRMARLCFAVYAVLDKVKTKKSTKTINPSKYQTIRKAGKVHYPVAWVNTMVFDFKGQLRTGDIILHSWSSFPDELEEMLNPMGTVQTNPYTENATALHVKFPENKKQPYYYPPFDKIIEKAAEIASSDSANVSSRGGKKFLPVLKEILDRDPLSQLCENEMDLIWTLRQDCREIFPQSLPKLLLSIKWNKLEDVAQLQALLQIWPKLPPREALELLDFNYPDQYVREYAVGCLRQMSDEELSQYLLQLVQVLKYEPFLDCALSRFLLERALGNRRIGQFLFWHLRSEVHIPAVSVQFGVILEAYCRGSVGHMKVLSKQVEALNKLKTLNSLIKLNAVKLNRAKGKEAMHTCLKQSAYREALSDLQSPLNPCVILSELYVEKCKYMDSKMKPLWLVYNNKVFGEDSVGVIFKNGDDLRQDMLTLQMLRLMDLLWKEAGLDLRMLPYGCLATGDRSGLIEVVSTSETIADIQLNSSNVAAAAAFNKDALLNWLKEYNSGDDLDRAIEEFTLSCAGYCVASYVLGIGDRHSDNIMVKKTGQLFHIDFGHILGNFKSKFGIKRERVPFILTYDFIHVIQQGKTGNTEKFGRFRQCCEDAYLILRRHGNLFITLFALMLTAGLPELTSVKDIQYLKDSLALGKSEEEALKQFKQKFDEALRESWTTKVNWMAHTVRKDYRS

Chain of Myosin-IIIa (Q8NEV4 whole entry): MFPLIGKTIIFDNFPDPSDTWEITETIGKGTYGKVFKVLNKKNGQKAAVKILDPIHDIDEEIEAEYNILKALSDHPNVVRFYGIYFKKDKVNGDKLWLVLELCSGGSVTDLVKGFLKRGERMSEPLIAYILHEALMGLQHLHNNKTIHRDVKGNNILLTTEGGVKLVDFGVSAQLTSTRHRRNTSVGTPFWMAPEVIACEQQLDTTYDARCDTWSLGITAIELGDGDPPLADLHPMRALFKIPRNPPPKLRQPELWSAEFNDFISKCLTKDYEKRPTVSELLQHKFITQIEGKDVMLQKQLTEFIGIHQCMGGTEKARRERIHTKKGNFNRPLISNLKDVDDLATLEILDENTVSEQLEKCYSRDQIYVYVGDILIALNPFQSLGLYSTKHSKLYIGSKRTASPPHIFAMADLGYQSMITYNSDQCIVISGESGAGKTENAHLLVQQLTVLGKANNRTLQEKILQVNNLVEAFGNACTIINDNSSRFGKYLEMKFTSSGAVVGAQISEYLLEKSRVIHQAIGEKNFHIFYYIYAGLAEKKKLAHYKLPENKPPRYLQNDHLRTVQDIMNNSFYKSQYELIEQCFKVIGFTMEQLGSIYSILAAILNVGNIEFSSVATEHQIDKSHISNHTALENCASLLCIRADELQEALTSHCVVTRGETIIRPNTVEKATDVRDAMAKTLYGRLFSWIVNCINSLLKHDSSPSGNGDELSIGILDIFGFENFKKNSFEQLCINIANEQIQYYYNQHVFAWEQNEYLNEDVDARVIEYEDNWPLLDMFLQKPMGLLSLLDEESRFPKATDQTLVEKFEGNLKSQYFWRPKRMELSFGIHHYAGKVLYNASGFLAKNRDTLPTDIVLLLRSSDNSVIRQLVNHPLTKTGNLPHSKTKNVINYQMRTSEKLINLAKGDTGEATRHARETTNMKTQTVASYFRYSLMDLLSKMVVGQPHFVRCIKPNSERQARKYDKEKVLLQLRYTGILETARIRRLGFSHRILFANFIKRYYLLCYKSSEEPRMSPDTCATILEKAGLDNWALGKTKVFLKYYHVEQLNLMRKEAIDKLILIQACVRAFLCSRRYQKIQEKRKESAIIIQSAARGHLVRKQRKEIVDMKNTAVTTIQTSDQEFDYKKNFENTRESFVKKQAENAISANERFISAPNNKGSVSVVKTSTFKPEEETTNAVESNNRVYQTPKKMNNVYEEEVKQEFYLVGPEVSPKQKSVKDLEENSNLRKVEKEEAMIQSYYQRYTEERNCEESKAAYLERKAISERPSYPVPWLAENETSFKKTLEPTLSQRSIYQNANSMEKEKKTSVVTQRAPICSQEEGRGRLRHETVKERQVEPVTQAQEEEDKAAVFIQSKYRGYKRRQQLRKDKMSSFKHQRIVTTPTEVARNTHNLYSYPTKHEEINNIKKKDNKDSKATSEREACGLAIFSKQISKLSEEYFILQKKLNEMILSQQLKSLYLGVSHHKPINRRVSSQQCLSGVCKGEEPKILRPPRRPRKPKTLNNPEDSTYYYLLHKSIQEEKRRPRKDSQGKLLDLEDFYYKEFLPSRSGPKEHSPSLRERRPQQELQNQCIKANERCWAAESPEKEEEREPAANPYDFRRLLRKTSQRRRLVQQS
Chain of Serine/threonine-protein kinase MRCK beta (Q9Y5S2 whole entry): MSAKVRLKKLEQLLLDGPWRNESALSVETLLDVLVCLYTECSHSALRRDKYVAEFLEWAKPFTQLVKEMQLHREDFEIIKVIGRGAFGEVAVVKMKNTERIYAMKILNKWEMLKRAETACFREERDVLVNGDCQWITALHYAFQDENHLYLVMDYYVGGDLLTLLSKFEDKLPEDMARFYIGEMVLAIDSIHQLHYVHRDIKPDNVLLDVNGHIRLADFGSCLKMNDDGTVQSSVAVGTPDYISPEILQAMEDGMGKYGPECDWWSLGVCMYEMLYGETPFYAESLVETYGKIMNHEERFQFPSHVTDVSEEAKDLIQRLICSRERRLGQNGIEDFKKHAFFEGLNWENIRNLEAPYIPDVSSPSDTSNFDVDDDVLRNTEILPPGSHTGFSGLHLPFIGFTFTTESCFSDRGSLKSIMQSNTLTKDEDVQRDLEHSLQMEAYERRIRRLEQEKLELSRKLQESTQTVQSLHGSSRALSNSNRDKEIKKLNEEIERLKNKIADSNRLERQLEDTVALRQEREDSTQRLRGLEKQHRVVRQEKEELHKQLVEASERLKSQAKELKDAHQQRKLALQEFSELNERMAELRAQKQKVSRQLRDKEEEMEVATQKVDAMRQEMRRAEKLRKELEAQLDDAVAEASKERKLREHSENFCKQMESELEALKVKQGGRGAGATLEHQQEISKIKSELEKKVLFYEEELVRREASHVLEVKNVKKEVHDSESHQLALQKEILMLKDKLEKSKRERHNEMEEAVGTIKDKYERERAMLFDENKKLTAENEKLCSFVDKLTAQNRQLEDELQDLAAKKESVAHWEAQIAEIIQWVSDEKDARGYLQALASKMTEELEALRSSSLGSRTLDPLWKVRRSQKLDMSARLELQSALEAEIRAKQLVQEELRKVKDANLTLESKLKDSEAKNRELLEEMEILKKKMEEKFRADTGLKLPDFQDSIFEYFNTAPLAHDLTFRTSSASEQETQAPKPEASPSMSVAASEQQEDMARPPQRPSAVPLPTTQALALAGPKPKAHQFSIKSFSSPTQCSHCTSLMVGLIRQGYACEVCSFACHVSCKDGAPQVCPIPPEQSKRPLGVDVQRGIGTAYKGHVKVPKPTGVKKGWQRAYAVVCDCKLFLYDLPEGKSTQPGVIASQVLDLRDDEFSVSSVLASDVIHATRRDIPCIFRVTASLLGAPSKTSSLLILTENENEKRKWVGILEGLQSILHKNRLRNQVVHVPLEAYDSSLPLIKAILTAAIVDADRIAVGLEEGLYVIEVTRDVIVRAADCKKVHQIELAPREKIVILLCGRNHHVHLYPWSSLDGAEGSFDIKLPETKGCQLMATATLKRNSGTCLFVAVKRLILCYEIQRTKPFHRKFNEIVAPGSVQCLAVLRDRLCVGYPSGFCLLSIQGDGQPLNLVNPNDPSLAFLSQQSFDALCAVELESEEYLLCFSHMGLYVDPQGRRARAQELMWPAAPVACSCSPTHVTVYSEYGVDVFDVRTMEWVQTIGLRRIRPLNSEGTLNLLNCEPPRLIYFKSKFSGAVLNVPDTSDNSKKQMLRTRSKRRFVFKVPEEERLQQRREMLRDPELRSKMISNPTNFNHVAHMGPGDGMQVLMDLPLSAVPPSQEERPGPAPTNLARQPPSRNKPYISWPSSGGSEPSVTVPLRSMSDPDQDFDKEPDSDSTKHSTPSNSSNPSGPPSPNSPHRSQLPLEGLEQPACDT
Chain of Protein kinase C eta type (P24723 whole entry): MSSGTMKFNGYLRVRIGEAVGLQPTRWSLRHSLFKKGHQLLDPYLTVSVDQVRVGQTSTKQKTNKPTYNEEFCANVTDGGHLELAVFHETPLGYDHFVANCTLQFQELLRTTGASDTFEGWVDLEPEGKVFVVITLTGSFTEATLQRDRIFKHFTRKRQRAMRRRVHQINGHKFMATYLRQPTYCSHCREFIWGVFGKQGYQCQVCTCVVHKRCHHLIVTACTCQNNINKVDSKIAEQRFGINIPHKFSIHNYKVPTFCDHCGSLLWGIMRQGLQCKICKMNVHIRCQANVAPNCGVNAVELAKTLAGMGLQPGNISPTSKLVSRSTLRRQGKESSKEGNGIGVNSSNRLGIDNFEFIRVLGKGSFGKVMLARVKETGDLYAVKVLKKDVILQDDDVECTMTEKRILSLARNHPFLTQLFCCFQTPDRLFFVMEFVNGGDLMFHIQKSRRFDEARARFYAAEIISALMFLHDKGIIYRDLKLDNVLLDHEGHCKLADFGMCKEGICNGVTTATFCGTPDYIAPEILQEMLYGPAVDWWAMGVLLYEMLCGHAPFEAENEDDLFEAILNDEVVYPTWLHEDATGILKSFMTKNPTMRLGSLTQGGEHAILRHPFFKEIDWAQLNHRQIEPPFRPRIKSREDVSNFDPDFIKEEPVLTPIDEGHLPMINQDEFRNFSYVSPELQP

Regarding `Cc1cn(CCN2CCN(c3ccccc3-c3cc(C#N)cc(C(=O)NCCCN4CCCC4)c3)CC2)c2ccccc12`, the IC50 (in assay [1]; in assay [2]; in [3]; on Myosin-IIIa; in assay [4]; in [5]) was over 20 µM in each case. The IC50 in assay [6], in assay [7] and in [8] was over 20 µM in each case. In addition, in the assay on KYSE-150 cell line, the Activity was 1.6.

As a reminder, the IC50 is the concentration at which inhibition is half-maximal. Read a high IC50 as weaker potency in that assay.
